Entries after “also recorded” stand apart in the source; their conditions may differ. Read-outs that look alike come from different tables or passages of the source.
Columns and labels:
Assay type in all cases: cell-based
[1] = tested on: Plasmodium falciparum strain D6 (mefloquine-resistant, chloroquine-sensitive); assay: In vitro drug sensitivity assay (3H-hypoxanthine incorporation), strain D6; details: for IC50: Plasmodium falciparum
Description: (§1) Plasmodium falciparum strains W2 (chloroquine-resistant, mefloquine-sensitive) and D6 (mefloquine-resistant, chloroquine-sensitive)were cultured in a medium consisting of RPMI-1640, 25 mM HEPES, 25 mM NaHCO3, and 10% (v/v) fresh frozen human plasma. Into the wells of a 96 well microtiter plate there was placed 200 ul per well of a 1.5% erythrocyte suspension containing 0.2% to 0.4% parasitized erythrocytes containing serial dilutions of the test compounds. The plate was then placed in an anaerobic chamber, flushed with nitrogen gas and incubated at 37° C. After 24 hours, 25 ul per well of G-^3 H-hypoxanthine (1 mCi/ml) were added and the plate reincubated as above. After 42 hours, the cells were harvested with a multimash-type cell harvester onto glass microfiber paper. A scintillation counter was used to determine the incorporated of ^3 H-hypoxanthine. The activities of the compounds tested were determined by comparing the incorporation of ^3 H-hypoxanthine to drug concentration using computerized non-linear regression analysis. [Antimicrob. Agents Chemother. 16:710, 1979; Am.J.Trop.Med.Hygiene 34:209, 1985].

[2] = tested on: Plasmodium falciparum strain W2 (chloroquine-resistant, mefloquine-sensitive); assay: In vitro drug sensitivity assay (3H-hypoxanthine incorporation), strain W2; details: for IC50: Plasmodium falciparum
Description: as §1

[3] = tested on: Plasmodium falciparum strains W2 and D6; assay: In vitro drug sensitivity assay, overall efficacy over both strains; details: qualitative
Description: as §1

[4] = strain D6, 3H-hypoxanthine incorporation, 42 hours, 37° C, read-out: IC50 (uM), D6
[5] = strain W2, 3H-hypoxanthine incorporation, 42 hours, 37° C, read-out: IC50 (uM), W2

SMILES | IC50 [1, 4] [µM] | IC50 [2, 5] [µM] | other results
N=C(N)c1ccc(OCCCCOc2ccc(C(=N)N)cc2)cc1 [Example 3] | 0.057 | 0.12 | –
N=C(N)c1ccc(NCCCCCNc2ccc(C(=N)N)cc2)cc1 [Example 8] | < 0.02 | 0.022 | efficacy against the mefloquine-resistant strain (D6) (in words) ([1]; qualitative): most effective compound; efficacy against malaria (in words) [3]: most efficacious product identified to date; also recorded: best compound for treating both strains of Plasmodium falciparum; efficacy against the chloroquine-resistant strain (W2) (in words) ([2]; qualitative): most effective compound
N=C(N)c1ccc(OCCCCCOc2ccc(C(=N)N)cc2)cc1 [Example 4, reference compound] | – | – | IC50 ([1]; D6, read-out: IC50 (uM), D6): 0.038 µM; efficacy against malaria (in words) [3]: moderately effective against malaria; IC50 ([2]; W2, read-out: IC50 (uM), W2): 0.083 µM
N=C(N)c1ccc(OCCCCCOc2ccc(C(=N)N)cc2N)c(N)c1 [Example 6] | 0.046 | 0.076 | –
N=C(N)c1ccc(NCCCCNc2ccc(C(=N)N)cc2)cc1 [Example 2] | 0.025 | 0.057 | –
COc1cc(C(=N)N)ccc1OCCCOc1ccc(C(=N)N)cc1OC [Example 1] | 0.077 | 0.065 | –
COc1cc(C(=N)N)ccc1OCCCCCOc1ccc(C(=N)N)cc1OC [Example 7] | 0.106 | 0.066 | –
N=C(N)c1ccc(OCCCCCOc2ccc(C(=N)N)cc2[N+](=O)[O-])c([N+](=O)[O-])c1 [Example 5] | – | – | IC50 ([1]; D6, read-out: IC50 (uM), D6): 0.071 µM; IC50 ([2]; W2, read-out: IC50 (uM), W2): 0.069 µM
N=C(N)c1ccc(OCCCCCCOc2ccc(C(=N)N)cc2)cc1 [Example 9] | 0.118 | 0.345 | –

Second part, led by results:

IC50 [1, 4] [µM] | IC50 [2, 5] [µM] | SMILES | other results
0.1 | 0.06 | COc1cc(C2=NCCN2)ccc1OCCCOc1ccc(C2=NCCN2)cc1OC [Example 17] | –
0.023 | 0.104 | c1cc(C2=NCCN2)ccc1OCCCCCOc1ccc(C2=NCCN2)cc1 [Example 15] | efficacy against malaria (in words) [3]: Very close in therapeutic efficacy against malaria
0.194 | 0.156 | N=C(N)c1cccc(OCCCOc2cccc(C(=N)N)c2)c1 [Example 11] | –
0.025 | 0.06 | c1cc(C2=NCCN2)ccc1OCCCOc1ccc(C2=NCCN2)cc1 [Example 18] | efficacy against malaria (in words) [3]: Very close in therapeutic efficacy against malaria
0.089 | 1.82 | CN1CCN=C1c1ccc(OCCCCCOc2ccc(C3=NCCN3C)cc2)cc1 [Example 16] | –
0.069 | 0.08 | N=C(N)c1cccc(OCCCCCOc2cccc(C(=N)N)c2)c1 [Example 13] | –
0.107 | 0.165 | N=C(N)c1ccc(OCCCCCOc2ccc(C(=N)N)cc2Cl)c(Cl)c1 [Example 10] | –
0.132 | 0.125 | N=C(N)c1cccc(OCCCCCCOc2cccc(C(=N)N)c2)c1 [Example 14] | –
0.046 | 0.043 | N=C(N)c1cccc(OCCCCOc2cccc(C(=N)N)c2)c1 [Example 12] | efficacy against malaria (in words) [3]: Very close in therapeutic efficacy against malaria
